pIC50: −log10 of the molar value.
molecular target: POLRMT (Homo sapiens, UniProt O00411); assay: homogeneous TR-FRET assay of mitochondrial transcription (inhibition of POLRMT); type: biochemical; details: isoquinolinone compounds (Table 1)
Description: The inhibitory activity of the compounds of the present invention against POLRMT were determined by assays based on Bergbrede, T., et al., “An adaptable high-throughput technology enabling the identification of specific transcription modulators,” SLAC Discov., 22, 378-386 (2017).
The ability of some compounds of the present invention to inhibit POLRMT were determined in a homogeneous TR-FRET Assay using high-throughput screening in a 384-well plate format. This method is used to monitor the activity of mitochondrial transcription through measurement of its product, a 407 bp long RNA transcript. Detection of the product is facilitated by hybridization of two DNA-oligonucleotide probes to specific and adjacent sequences within the RNA product sequence. Upon annealing of the probes, two fluorophores are coupled directly to an acceptor nucleotide probe (ATTO647, 5′), or introduced via a coupled streptavidin with a biotinylated donor nucleotide probe (Europium cryptate) that is brought into sufficient proximity to serve as a fluorescence-donor-acceptor pair. Thus, a FRET signal at 665 nm is generated upon excitation at 340 nm.
Proteins used as transcription factors (POLRMT: NP_005026.3, TFAM: NP_003192.1, TFB2M: NP_071761.1) are diluted from their stocks to working concentrations of 1 μM, 20 μM and 4 μM respectively, in a dilution buffer containing 20 mM Tris-HCl (pH 8.0), 200 mM NaCl, 10% (v/v) glycerol, 1 mM Dithiothreitol (DTT), 0.5 mM EDTA.
DNA template is a pUC18 plasmid with the mitochondrial light strand promotor sequence (1-477) cloned between HindIII and BamHI sites. The DNA template is restriction linearized proximal to the promotor 3′-end (pUC-LSP).
The reaction mixture (10 uL) containing 7.5 nM POLRMT, 15 nM of TFB2M, 30 nM of TFAM, 0.5 nM of DNA template and 500 μM nucleotide triphosphate mix (NTPs) in a reaction buffer (containing 10 mM Tris-HCl (pH 7.5), 10 mM MgCl2, 40 mM NaCl, 10 mM DTT, 0.005% (w/v) Tween-20, 160 units/ml Rnase inhibitor and 0.1 mg/mL BSA) are dispensed to compounds in microplates, using a Thermo Multidrop® dispenser, and incubated at 37° C. in a VWR INCU-Line incubator for 60 minutes after mixing. No nucleotide triphosphate mix is added to negative control samples. Microplates with compounds to be tested in the assay are prepared from 10 mM compound stocks in 100% DMSO, equal amounts of DMSO without any compound are added to positive control and negative control samples.
During the incubation, a mix of the detection reagents is prepared in a buffer such that the enzymatic reaction is terminated due to chelating of Mg-ions and increased ionic strength, containing 50 mM Tris-HCl (pH 7.5), 700 mM NaCl, 20 mM EDTA, and 0.010% (w/v) Tween-20. Europium-streptavidin is pre-incubated with a 200-fold molar excess of a random sequence oligonucleotide to block unspecific binding of oligo, for two hours at ambient temperature in the dark. Afterwards, the blocked Europium-streptavidin is kept on ice until use.
At the end of the enzymatic reaction time, 5 μL detection oligo mix in the detection buffer is added, and assay plates are mixed and kept at ambient temperature for one hour, protected from light. The concentration of the Acceptor nucleotide oligo (e.g., ATTO647N-5′-[…]-3′) and Donor nucleotide oligo (e.g., bio-5′-AACACATCTCT(-bio)GCCAAACCCCA-bio-3′) in each assay well is 1 nM, and 3 nM, respectively.
After incubation with oligo mix, 5 μL of pre-blocked Europium-streptavidin reagent is dispensed to each assay well, assay plates are again mixed and kept at ambient temperature for one hour, protected from light.
The generated signal is measured with BMG Pherastar microtiter plate reader with a TRF light unit, using excitation at 340 nm, an integration time of 200 μs, and a delay time of 100 μs, before detection at 620 nm and 665 nm. The ratio of donor- and acceptor-fluorescence is used as a measure of the generated transcript product (i.e. enzymatic activity).

Sequence of POLRMT (O00411 42-1230): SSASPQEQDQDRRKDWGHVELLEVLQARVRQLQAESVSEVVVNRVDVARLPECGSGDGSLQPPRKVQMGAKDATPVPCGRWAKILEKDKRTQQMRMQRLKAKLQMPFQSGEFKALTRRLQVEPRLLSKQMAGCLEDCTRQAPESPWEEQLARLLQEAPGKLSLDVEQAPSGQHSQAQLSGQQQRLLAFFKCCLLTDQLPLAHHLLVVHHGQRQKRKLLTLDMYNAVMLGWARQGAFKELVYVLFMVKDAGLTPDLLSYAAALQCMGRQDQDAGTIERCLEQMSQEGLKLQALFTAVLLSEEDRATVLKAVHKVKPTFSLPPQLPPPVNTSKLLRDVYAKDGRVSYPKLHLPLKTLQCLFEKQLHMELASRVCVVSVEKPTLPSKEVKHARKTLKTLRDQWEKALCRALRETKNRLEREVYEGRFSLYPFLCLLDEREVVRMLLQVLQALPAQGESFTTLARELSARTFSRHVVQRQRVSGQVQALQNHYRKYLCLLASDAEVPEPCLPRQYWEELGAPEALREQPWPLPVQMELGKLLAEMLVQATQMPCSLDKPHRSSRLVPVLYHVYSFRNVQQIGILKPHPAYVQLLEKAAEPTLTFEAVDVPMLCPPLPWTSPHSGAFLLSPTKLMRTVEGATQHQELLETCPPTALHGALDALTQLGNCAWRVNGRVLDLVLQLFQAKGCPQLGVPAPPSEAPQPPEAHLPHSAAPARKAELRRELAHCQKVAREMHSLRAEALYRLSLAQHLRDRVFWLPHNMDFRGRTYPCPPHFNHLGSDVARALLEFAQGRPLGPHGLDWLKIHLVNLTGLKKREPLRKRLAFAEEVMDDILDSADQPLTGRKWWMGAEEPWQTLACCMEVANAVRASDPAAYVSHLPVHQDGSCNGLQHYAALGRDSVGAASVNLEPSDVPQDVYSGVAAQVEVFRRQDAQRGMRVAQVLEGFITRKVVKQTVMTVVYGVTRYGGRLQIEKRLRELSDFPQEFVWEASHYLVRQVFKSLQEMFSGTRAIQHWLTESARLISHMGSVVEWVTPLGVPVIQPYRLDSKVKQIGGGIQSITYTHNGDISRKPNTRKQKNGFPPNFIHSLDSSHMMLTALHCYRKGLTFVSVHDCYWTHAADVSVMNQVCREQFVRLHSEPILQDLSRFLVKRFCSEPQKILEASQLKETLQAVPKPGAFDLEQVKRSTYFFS

`Cc1ccccc1-c1c[nH]c(=O)c2cc(O[C@H](C)C(=O)N3CCOCC3)ccc12` [Example 78, (R)-7-((1-morpholino-1-oxopropan-2-yl)oxy)-4-(o-tolyl)isoquinolin-1(2H)-one] and `Cc1ccccc1-c1c[nH]c(=O)c2cc(O[C@H](C)C(=O)N3CCC(F)(F)CC3)ccc12` [Example 80, (R)-7-((1-(4,4-difluoropiperidin-1-yl)-1-oxopropan-2-yl)oxy)-4-(o-tolyl)isoquinolin-1(2H)-one] are within 0.2 log units of each other in pIC50: 7.52 for the first, 7.40 for the second.

Going from `C[C@H](Oc1ccc2c(-c3ccc(F)cc3Cl)c[nH]c(=O)c2c1)C(=O)N1CCC(C(=O)O)CC1` [Example 60, (S)-1-(2-((4-(2-chloro-4-fluorophenyl)-1-oxo-1,2-dihydroisoquinolin-7-yl)oxy)propanoyl)piperidine-4-carboxylic acid] to `C[C@@H](Oc1ccc2c(-c3ccc(F)cc3Cl)c[nH]c(=O)c2c1)C(=O)N1CCC(C(=O)O)CC1` [Example 64, (R)-1-(2-((4-(2-chloro-4-fluorophenyl)-1-oxo-1,2-dihydroisoquinolin-7-yl)oxy)propanoyl)piperidine-4-carboxylic acid], the pIC50 rises from 4.41 to 7.30 (2.89 log units).

`COCC(Oc1ccc2c(-c3ccccc3C)c[nH]c(=O)c2c1)C(N)=O` (single isomer, unassigned) [Example 53] and `Cc1ccccc1-c1c[nH]c(=O)c2cc(OC(C)C(N)=O)ccc12` (single isomer, unassigned) [Example 72] are within 0.2 log units of each other in pIC50: 4.89 for the first, 4.77 for the second.

First: C[C@@H](Oc1ccc2c(-c3ccc(F)cc3Cl)c[nH]c(=O)c2c1)C(=O)N1CCCC(F)(F)C1 [Example 84, (R)-4-(2-chloro-4-fluorophenyl)-7-((1-(3,3-difluoropiperidin-1-yl)-1-oxopropan-2-yl)oxy)isoquinolin-1(2H)-one]
Second: C[C@@H](Oc1ccc2c(-c3ccc(F)cc3Cl)c[nH]c(=O)c2c1)C(=O)N1CCC(F)(F)CC1 [Example 91, (R)-4-(2-chloro-4-fluorophenyl)-7-((1-(4,4-difluoropiperidin-1-yl)-1-oxopropan-2-yl)oxy)isoquinolin-1(2H)-one]
The pIC50 of the first is 0.58 log units higher: 7.10 for the first, 6.52 for the second. The first is the more potent here.

Going from `Cc1ccccc1-c1c[nH]c(=O)c2cc(OCC(C)C)ccc12` [Example 6, 7-isobutoxy-4-(o-tolyl)isoquinolin-1(2H)-one] to `COCC(C)Oc1ccc2c(-c3ccccc3C)c[nH]c(=O)c2c1` (single isomer, unassigned) [Example 27, 7-((1-methoxypropan-2-yl)oxy)-4-(o-tolyl)isoquinolin-1(2H)-one], the pIC50 falls from 6.70 to 6.00 (0.70 log units).

Going from `N#CCOc1ccc2c(-c3ccc(F)cc3Cl)c[nH]c(=O)c2c1` [Example 37, 2-((4-(2-chloro-4-fluorophenyl)-1-oxo-1,2-dihydroisoquinolin-7-yl)oxy)acetonitrile] to `Cc1cc(F)ccc1-c1c[nH]c(=O)c2cc(OCC#N)ccc12` [Example 83, 2-((4-(4-fluoro-2-methylphenyl)-1-oxo-1,2-dihydroisoquinolin-7-yl)oxy)acetonitrile], the pIC50 rises from 6.05 to 6.40 (0.35 log units). The second is the more potent here.

Compared with `C[C@@H](Oc1ccc2c(-c3ccc(F)cc3Cl)c[nH]c(=O)c2c1)C(=O)N1CCOC[C@H]1CO` [Example 113, 4-(2-chloro-4-fluorophenyl)-7-(((R)-1-((R)-3-(hydroxymethyl)morpholino)-1-oxopropan-2-yl)oxy)isoquinolin-1(2H)-one], `C[C@@H](Oc1ccc2c(-c3ccc(F)cc3Cl)c[nH]c(=O)c2c1)C(=O)N1CC[S+]([O-])CC1` [Example 128, (R)-4-(2-chloro-4-fluorophenyl)-7-((1-(1-oxidothiomorpholino)-1-oxopropan-2-yl)oxy)isoquinolin-1(2H)-one] is 0.70 log units lower in pIC50: 6.22 for the first, 5.52 for the second. The first is the more potent here.

`CCC(=O)N1CCN(C(=O)[C@@H](C)Oc2ccc3c(-c4ccc(F)cc4Cl)c[nH]c(=O)c3c2)CC1` [Example 117, (R)-4-(2-chloro-4-fluorophenyl)-7-((1-oxo-1-(4-propionylpiperazin-1-yl)propan-2-yl)oxy)isoquinolin-1(2H)-one] and `CC(=O)N1CCN(C(=O)[C@@H](C)Oc2ccc3c(-c4ccc(F)cc4Cl)c[nH]c(=O)c3c2)CC1` [Example 116, (R)-7-((1-(4-acetylpiperazin-1-yl)-1-oxopropan-2-yl)oxy)-4-(2-chloro-4-fluorophenyl)isoquinolin-1(2H)-one] are the same in pIC50: 6.30 for the first, 6.30 for the second.

First: CC(=O)NCc1ccc2c(-c3ccccc3C)c[nH]c(=O)c2c1 [Example 39, N-((1-oxo-4-(o-tolyl)-1,2-dihydroisoquinolin-7-yl)methyl)acetamide]
Second: Cc1ccccc1-c1c[nH]c(=O)c2cc(NC(C)C(N)=O)ccc12 (stereo not shown) [Example 67, 2-((1-oxo-4-(o-tolyl)-1,2-dihydroisoquinolin-7-yl)amino)propanamide]
The pIC50 of the first is lower: < 4.00 for the first, 4.92 for the second. The second is the more potent here.

First: Cc1ccccc1-c1c[nH]c(=O)c2cc(OCC(F)(F)F)ccc12 [Example 65, 4-(o-tolyl)-7-(2,2,2-trifluoroethoxy)isoquinolin-1(2H)-one]
Second: Cc1ccccc1-c1c[nH]c(=O)c2cc(OC(C)(C)C(=O)O)ccc12 [Example 119, 2-methyl-2-((1-oxo-4-(o-tolyl)-1,2-dihydroisoquinolin-7-yl)oxy)propanoic acid]
The pIC50 of the first is 1.37 log units higher: 7.52 for the first, 6.15 for the second.

`C[C@@H](Oc1ccc2c(-c3ccc(F)cc3Cl)c[nH]c(=O)c2c1)C(=O)N1CCCC(S(C)(=O)=O)C1` (single isomer, unassigned) [Example 95] and `Cc1ccccc1-c1c[nH]c(=O)c2cc(OC(C)C(N)=O)ccc12` (stereo not shown) [Example 71, 2-((1-oxo-4-(o-tolyl)-1,2-dihydroisoquinolin-7-yl)oxy)propanamide] are the same in pIC50: 6.00 for the first, 6.00 for the second.

Compared with `Cc1c(F)cccc1-c1c[nH]c(=O)c2cc(OCC#N)ccc12` [Example 135, 2-((4-(3-fluoro-2-methylphenyl)-1-oxo-1,2-dihydroisoquinolin-7-yl)oxy)acetonitrile], `Cc1ccccc1-c1c[nH]c(=O)c2cc(N(C)CC(N)=O)ccc12` [Example 66, 2-(methyl(1-oxo-4-(o-tolyl)-1,2-dihydroisoquinolin-7-yl)amino)acetamide] is 1.40 log units lower in pIC50: 6.70 for the first, 5.30 for the second. The first is the more potent here.

same assay, conditions: quinolinone compounds (Table 2)

Going from `Cc1ccccc1-c1cc(=O)[nH]c2cc(OCC(C)C)ccc12` [Example Q12, 7-isobutoxy-4-(o-tolyl)quinolin-2(1H)-one] to `Cc1ccccc1-c1cc(=O)[nH]c2cc(OC(C)C)ccc12` [Example Q10, 7-isopropoxy-4-(o-tolyl)quinolin-2(1H)-one], the pIC50 rises from 4.74 to 5.70 (0.96 log units). The second is the more potent here.

First: Cc1ccccc1-c1cc(=O)[nH]c2cc(O[C@H](C)C(=O)N3CCC(C(=O)O)CC3)ccc12 [Example Q14, (R)-1-(2-((2-oxo-4-(o-tolyl)-1,2-dihydroquinolin-7-yl)oxy)propanoyl)piperidine-4-carboxylic acid]
Second: Cc1ccccc1-c1cc(=O)[nH]c2cc(O[C@H](C)C(=O)O)ccc12 [Example Q13, (R)-2-((2-oxo-4-(o-tolyl)-1,2-dihydroquinolin-7-yl)oxy)propanoic acid]
The pIC50 of the first is 0.37 log units lower: 5.15 for the first, 5.52 for the second. The second is the more potent here.

First: Cc1cc(F)ccc1-c1cc(=O)[nH]c2cc(OC(C)C)ccc12 [Example Q3, 4-(4-fluoro-2-methylphenyl)-7-isopropoxy-1H-quinolin-2-one]
Second: Cc1ccccc1-c1cc(=O)[nH]c2cc(O[C@H](C)C(=O)N(C)C)ccc12 (single isomer, unassigned) [Example Q7]
The pIC50 of the first is 0.35 log units higher: 5.40 for the first, 5.05 for the second.

`O=c1cc(-c2ccc(F)cc2Cl)c2ccc(O)cc2[nH]1` [Example Q2, 4-(2-chloro-4-fluorophenyl)-7-hydroxyquinolin-2(1H)-one] was tested, and the pIC50 was < 4.00.
